Laboratory results reported in patent US12590071B2, “Hydrazone derivative in which terminal amine group is substituted with aryl group or heteroaryl group, and use thereof” (KOREA INSTITUTE OF SCIENCE AND TECHNOLOGY, priority 2018, dated 2026).

Assays:
[1] = tested on: Tau-BiFC cells; test: Cytotoxicity (cell survival rate) in tau-BiFC cells; conditions: group treated with Forskolin alone = 100%
Method: (§1) In order to select new tau protein aggregation-inhibiting materials, tau-BiFC cell models, in which it is easy to observe the formation of tau oligomers in living cells, were used. […] After 48 hours, intracellular nuclei were stained using Hoechst (treatment concentration 2 μg/mL), and BiFC fluorescence intensity was automatically quantified using Operetta (PerkinElmer) to count stained nuclei in each well from the total well plates. […] Further, the degree of cytotoxicity induced by the newly synthesized compound is also based on the 100% survival rate of the group treated with Forskolin alone, and the cytotoxicity value of the compound was calculated by the equation “number of stained nuclei in the group treated with the compound/number of stained nuclei in the group treated with Forskolin x 100”.
(§2) In order to evaluate dose-dependent tau protein aggregation inhibition effects of the compounds selected according to Experimental Example 1, the selected compounds were treated in tau-BiFC cells at concentrations of 0.03 µM, […], 0.3 μM, 1 μM, 3 μM, 10 μM, and 30 μM, respectively, together with Forskolin (treatment concentration 30 µM) as a tau protein aggregation inducing material. After 48 hours, tau protein aggregation reaction and cytotoxicity degree were analyzed by observing cell images. The IC50 and toxicity of the compounds were analyzed by nonlinear regression analysis of prism software (Graph Pad).

[2] = Liver microsomal stability (rat); format: in vitro ADME; conditions: amount of substrate remaining; 1 μM, 0.25 mg/mL microsomes, 37° C., 30 minutes
Method: (§3) The liver microsomal stability of the compounds prepared according to Examples 1 to 171 was confirmed. Specifically, four kinds of liver microsomes (human, dog, rat, and mouse, each 0.25 mg/mL), a 0.1 M phosphate buffer solution (pH 7.4), and the compounds with a concentration of 1 μM were added, respectively. Then the mixture was cultured in advance at 37° C. for 5 minutes, and then further cultured at 37° C. for 30 minutes together with the addition of an NADPH generation system solution. Thereafter, a reaction was terminated by adding an acetonitrile solution containing an internal standard material (chloropropamide), centrifugal separation (14,000 rpm, 4° C.) was performed for 5 minutes, and then a supernatant was injected into an LC-MS/MS system. The substrate drugs were analyzed to evaluate the metabolic stability for 8 kinds of compounds.
(§4) The amount of substrate remaining through the reaction was analyzed using the Shimadzu Nexera XR system and TSQ vantage (Thermo). Kinetex XB-C18 (2.1 mm×100 mm, 2.6 μm, particle size; Phenomenex, USA) was used in an HPLC column, and (A) distilled water containing 0.1% formic acid and (B) acetonitrile containing 0.1% formic acid were used as mobile phases. Analyst software (version 1.6.3) and Xcalibur (version 1.6.1) were used for data analysis.

[3] = Liver microsomal stability (human); format: in vitro ADME; conditions: amount of substrate remaining; 1 μM, 0.25 mg/mL microsomes, 37° C., 30 minutes
Method: as §3, §4

[4] = target: T1, CYP3A4 (Homo sapiens, UniProt P08684); test: Inhibition of CYP coenzyme activity in human liver microsomes; format: in vitro ADME; design: scale not given here; conditions: compound 10 PM (so in the source); human liver microsomes 0.25 mg/mL; substrate midazolam; 15 minutes
T1 construct: human liver microsomes (0.25 mg/mL); from tissue; host or cells: human liver microsomes
T1 sequence (P08684 whole entry): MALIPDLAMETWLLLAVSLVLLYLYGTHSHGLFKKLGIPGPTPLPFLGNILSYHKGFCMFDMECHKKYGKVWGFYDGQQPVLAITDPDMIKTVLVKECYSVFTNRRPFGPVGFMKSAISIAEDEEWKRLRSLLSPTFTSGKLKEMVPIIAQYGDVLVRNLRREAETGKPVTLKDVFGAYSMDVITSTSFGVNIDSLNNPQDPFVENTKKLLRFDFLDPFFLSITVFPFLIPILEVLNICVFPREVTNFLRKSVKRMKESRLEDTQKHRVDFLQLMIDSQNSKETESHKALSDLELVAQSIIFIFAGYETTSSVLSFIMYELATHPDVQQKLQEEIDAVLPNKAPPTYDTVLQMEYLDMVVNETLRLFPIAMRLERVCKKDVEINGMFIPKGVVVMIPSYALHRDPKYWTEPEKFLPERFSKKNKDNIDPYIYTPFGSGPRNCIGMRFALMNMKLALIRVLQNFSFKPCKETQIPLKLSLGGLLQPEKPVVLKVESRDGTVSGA
Method: (§5) 5 The inhibition effects of CYP coenzyme activity by the compounds prepared according to Examples 1 to 171 was confirmed. Specifically, human liver microsomes (0.25 mg/mL), a 0.1 M phosphate buffer solution (pH 7.4), substrate drug cocktails (phenacetin 50 μM, diclofenac 10 μM, S-mephenytoin 100 μM, dextromethorphan 5 μM, and midazolam 2.5 μM) of five kinds of drug metabolism enzymes, and the compounds with a concentration of 0 μM or 10 PM were added, respectively. Then the mixture was cultured in advance at 37° C. for 5 minutes, and then further cultured at 37° C. for 15 minutes together with the addition of an NADPH generation system solution. Thereafter, a reaction was terminated by adding an acetonitrile solution containing an internal standard material (terfenadine), centrifugal separation (14,000 rpm, 4° C.) was performed for 5 minutes, and then a supernatant was injected into an LC-MS/MS system. Metabolites of the substrate drugs were simultaneously analyzed to evaluate the drug metabolism inhibition ability.
(§6) Metabolites of each CYP coenzyme indicator drug generated through the reaction were analyzed using the Shimadzu Nexera XR system and TSQ vantage (Thermo). Kinetex C18 (2.1 mm×100 mm, 2.6 μm, particle size; Phenomenex, USA) was used in an HPLC column, and (A) distilled water containing 0.1% formic acid and (B) acetonitrile containing 0.1% formic acid were used as mobile phases, and the gradient program shown in Table 2 was applied.
(§7) The generated metabolites were quantified using an MRM (multiple reaction monitoring) quantification mode, and Xcalibur (version 1.6.1) was used for data analysis.

[5] = Liver microsomal stability (mouse); format: in vitro ADME; conditions: amount of substrate remaining; 1 μM, 0.25 mg/mL microsomes, 37° C., 30 minutes
Method: as §3, §4

[6] = target: T2, CYP2C9 (Homo sapiens, UniProt P11712); test: Inhibition of CYP coenzyme activity in human liver microsomes; format: in vitro ADME; conditions: compound 10 PM (so in the source); human liver microsomes 0.25 mg/mL; substrate diclofenac; 15 minutes
T2 construct: human liver microsomes (0.25 mg/mL); from tissue; host or cells: human liver microsomes
T2 sequence (P11712 whole entry): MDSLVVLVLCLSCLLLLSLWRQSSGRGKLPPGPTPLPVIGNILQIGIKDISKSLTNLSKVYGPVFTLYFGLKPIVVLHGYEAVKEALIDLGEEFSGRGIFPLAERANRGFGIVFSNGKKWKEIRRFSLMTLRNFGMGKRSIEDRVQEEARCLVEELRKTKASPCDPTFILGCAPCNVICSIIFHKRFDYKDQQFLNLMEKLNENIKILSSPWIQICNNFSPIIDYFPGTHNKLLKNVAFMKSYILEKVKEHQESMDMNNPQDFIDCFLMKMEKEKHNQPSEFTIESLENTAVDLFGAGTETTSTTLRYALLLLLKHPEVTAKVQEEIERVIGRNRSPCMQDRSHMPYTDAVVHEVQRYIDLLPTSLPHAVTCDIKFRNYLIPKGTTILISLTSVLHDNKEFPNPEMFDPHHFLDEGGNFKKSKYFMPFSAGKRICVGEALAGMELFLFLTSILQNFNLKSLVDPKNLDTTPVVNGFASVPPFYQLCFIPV
Method: as §5, §6, §7

[7] = target: T3, CYP2D6 (Homo sapiens, UniProt P10635); test: as above; format: in vitro ADME; conditions: compound 10 PM (so in the source); human liver microsomes 0.25 mg/mL; substrate dextromethorphan; 15 minutes
T3 construct: human liver microsomes (0.25 mg/mL); from tissue; host or cells: human liver microsomes
T3 sequence (P10635 whole entry): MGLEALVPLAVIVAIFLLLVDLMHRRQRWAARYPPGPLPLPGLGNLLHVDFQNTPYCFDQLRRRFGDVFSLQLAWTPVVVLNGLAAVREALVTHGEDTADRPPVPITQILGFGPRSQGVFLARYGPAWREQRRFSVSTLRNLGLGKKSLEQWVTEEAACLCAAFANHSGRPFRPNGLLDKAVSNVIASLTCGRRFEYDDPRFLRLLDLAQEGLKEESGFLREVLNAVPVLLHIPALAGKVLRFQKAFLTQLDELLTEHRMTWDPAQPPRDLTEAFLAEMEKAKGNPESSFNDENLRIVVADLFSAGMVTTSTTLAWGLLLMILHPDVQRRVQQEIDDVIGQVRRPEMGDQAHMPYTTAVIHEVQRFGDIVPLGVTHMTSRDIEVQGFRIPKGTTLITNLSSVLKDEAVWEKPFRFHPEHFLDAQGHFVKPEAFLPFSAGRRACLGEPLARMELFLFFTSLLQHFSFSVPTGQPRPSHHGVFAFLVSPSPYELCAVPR
Method: as §5, §6, §7

[8] = target: T4, CYP1A2 (Homo sapiens, UniProt P05177); test: as above; format: in vitro ADME; conditions: compound 10 PM (so in the source); human liver microsomes 0.25 mg/mL; substrate phenacetin; 15 minutes
T4 construct: human liver microsomes (0.25 mg/mL); from tissue; host or cells: human liver microsomes
T4 sequence (P05177 1-516): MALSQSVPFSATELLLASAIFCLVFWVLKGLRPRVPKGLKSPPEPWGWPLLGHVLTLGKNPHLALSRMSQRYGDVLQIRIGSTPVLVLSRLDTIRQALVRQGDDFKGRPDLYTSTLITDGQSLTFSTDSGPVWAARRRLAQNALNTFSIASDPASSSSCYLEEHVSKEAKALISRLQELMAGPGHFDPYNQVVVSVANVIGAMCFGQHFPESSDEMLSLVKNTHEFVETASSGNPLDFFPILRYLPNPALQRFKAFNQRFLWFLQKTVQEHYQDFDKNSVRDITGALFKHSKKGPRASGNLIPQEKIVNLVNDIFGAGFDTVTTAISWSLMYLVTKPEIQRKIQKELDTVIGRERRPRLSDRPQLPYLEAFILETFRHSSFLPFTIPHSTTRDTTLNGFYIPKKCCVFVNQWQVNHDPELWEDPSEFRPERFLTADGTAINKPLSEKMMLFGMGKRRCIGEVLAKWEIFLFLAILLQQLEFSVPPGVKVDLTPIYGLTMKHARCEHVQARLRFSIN
Method: as §5, §6, §7

[9] = target: T5, CYP2C19 (Homo sapiens, UniProt P33261); test: as above; format: in vitro ADME; conditions: compound 10 PM (so in the source); human liver microsomes 0.25 mg/mL; substrate S-mephenytoin; 15 minutes
T5 construct: human liver microsomes (0.25 mg/mL); from tissue; host or cells: human liver microsomes
T5 sequence (P33261 whole entry): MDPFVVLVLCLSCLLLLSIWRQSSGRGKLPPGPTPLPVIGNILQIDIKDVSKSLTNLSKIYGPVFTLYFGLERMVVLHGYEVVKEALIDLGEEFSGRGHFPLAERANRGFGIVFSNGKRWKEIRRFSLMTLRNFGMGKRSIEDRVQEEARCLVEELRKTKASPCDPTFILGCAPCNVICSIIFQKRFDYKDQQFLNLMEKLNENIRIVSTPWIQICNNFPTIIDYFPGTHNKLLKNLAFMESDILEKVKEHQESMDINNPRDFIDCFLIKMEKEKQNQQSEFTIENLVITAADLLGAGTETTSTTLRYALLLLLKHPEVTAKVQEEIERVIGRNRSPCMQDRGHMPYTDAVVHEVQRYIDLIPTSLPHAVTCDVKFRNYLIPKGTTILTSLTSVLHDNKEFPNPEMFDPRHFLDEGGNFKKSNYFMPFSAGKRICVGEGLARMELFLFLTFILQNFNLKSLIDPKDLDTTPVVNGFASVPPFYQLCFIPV
Method: as §5, §6, §7

[10] = target: T6, tau protein (Homo sapiens, UniProt P10636); test: Tau protein aggregation inhibition in tau-BiFC cell model; format: cell-based; conditions: tau-BiFC cells treated together with Forskolin, 48 hours
T6 construct: expressed in transfected cells
T6 sequence (P10636 2-441 isoform P10636-8 limits assumed): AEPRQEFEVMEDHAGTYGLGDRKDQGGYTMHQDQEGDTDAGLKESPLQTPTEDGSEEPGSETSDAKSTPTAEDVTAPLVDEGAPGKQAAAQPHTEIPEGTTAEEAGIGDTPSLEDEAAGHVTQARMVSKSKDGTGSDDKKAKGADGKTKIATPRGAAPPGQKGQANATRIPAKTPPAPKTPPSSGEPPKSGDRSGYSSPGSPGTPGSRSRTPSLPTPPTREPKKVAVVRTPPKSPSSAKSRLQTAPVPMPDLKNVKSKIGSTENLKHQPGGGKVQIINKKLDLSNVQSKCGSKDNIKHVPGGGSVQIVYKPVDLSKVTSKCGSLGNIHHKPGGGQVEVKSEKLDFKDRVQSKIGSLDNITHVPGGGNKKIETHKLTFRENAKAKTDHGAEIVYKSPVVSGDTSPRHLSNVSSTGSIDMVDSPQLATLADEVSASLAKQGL
Method: as §1, §2

[11] = Liver microsomal stability (dog); format: in vitro ADME; conditions: amount of substrate remaining; 1 μM, 0.25 mg/mL microsomes, 37° C., 30 minutes
Method: as §3, §4

SMILES | Cell survival rate (% @ 10 μM) [1] [%] | liver microsomal stability, Rat (%) [2] [%] | liver microsomal stability, Human (%) [3] [%] | inhibition effects of CYP coenzyme activity, CYP3A4 [4] | liver microsomal stability, Mouse (%) [5] [%] | inhibition effects of CYP coenzyme activity, CYP2C9 [6] | inhibition effects of CYP coenzyme activity, CYP2D6 [7] | inhibition effects of CYP coenzyme activity, CYP1A2 [8] | inhibition effects of CYP coenzyme activity, CYP2C19 [9] | IC50 [10] [nM] | liver microsomal stability, Dog (%) [11] [%]
N#CC(C#N)=NNc1ccc(-n2cccn2)cc1 [Compound 35, (4-(1H-pyrazol-1-yl)phenyl)carbonohydrazonoyl dicyanide] | 100 | 56.4 | 82.2 | >100 | 10.7 | 81.3 | >100 | 99.9 | >100 | 1700 | 24.2
Cc1cnn(-c2ccc(NN=C(C#N)C#N)cc2)c1 [Compound 36, (4-(4-methyl-1H-pyrazol-1-yl)phenyl)carbonohydrazonoyl dicyanide] | 99.3 | 20.1 | 65.9 | >100 | 37.9 | 60.7 | 98.6 | 86 | >100 | 53 | 60.6
Cc1ccnc(-c2ccc(NN=C(C#N)C#N)c(F)c2)n1 [Compound 37, (2-fluoro-4-(4-methylpyrimidin-2-yl)phenyl)carbonohydrazonoyl dicyanide] | 88.3 | 25.9 | 55.7 | >100 | 32.7 | 56.9 | >100 | 78.1 | 100 | 1340 | 61
COc1cc(-c2nccc(C)n2)ccc1NN=C(C#N)C#N [Compound 42, (2-methoxy-4-(4-methylpyrimidin-2-yl)phenyl)carbonohydrazonoyl dicyanide] | 128 | 46.5 | 53.4 | >100 | 47.9 | 88.8 | >100 | 83.6 | 96.2 | 3000 | 30.7
Cn1cc2c(-c3ccc(NN=C(C#N)C#N)cc3)cccc2n1 [Compound 55, (4-(2-methyl-2H-indazol-4-yl)phenyl)carbonohydrazonoyl dicyanide] | 120.1 | 60.8 | 70 | 87.6 | 71.2 | 59.5 | >100 | 66.9 | 86 | 1000 | 85.6
N#CC(C#N)=NNc1ccc2scnc2c1 [Compound 61, benzo[d]thiazol-5-ylcarbonohydrazonoyl dicyanide] | 111.7 | 66.2 | 70.4 | 90.1 | 33.5 | 75.5 | >100 | 45.1 | 93.6 | 3100 | 32.6
Cn1ncc2ccc(NN=C(C#N)C#N)cc21 [Compound 63, (1-methyl-1H-indazol-6-yl)carbonohydrazonoyl dicyanide] | 111.4 | 72.1 | 87.4 | >100 | 9.5 | 84.2 | >100 | 43.3 | >100 | 740 | 82.6
N#CC(C#N)=NNc1ccc2[nH]ncc2c1 [Compound 69, (1H-indazol-5-yl)carbonohydrazonoyl dicyanide] | 204.7 | 64.4 | 97.6 | 95.2 | 34.2 | 16.6 | >100 | 80.1 | 82.1 | 190 | 71.9
